Biological target: T1, hNLRP3 (Homo sapiens, UniProt Q96P20)
T1 construct: THP-1 cells were purchased from the American Type Culture Collection; host or cells: THP-1 cells, PMA-differentiated
Assay: IL-1β production in PMA-differentiated THP-1 cells stimulated with gramicidin
Format: cell-based
Details: gramicidin 5 μM, IL-1β in supernatant, Table 2
In short: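 THP-1 cells differentiated with PMA (10 μg/ml, 24 h, or 20 ng/ml, 16-18 h), replated in 2% FBS RPMI and preincubated with compound for 1 h before 5 μM gramicidin for 2 h. Supernatant IL-1β measured by ELISA (1% DMSO) or HTRF (0.38% DMSO).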

T1 sequence (Q96P20 whole entry): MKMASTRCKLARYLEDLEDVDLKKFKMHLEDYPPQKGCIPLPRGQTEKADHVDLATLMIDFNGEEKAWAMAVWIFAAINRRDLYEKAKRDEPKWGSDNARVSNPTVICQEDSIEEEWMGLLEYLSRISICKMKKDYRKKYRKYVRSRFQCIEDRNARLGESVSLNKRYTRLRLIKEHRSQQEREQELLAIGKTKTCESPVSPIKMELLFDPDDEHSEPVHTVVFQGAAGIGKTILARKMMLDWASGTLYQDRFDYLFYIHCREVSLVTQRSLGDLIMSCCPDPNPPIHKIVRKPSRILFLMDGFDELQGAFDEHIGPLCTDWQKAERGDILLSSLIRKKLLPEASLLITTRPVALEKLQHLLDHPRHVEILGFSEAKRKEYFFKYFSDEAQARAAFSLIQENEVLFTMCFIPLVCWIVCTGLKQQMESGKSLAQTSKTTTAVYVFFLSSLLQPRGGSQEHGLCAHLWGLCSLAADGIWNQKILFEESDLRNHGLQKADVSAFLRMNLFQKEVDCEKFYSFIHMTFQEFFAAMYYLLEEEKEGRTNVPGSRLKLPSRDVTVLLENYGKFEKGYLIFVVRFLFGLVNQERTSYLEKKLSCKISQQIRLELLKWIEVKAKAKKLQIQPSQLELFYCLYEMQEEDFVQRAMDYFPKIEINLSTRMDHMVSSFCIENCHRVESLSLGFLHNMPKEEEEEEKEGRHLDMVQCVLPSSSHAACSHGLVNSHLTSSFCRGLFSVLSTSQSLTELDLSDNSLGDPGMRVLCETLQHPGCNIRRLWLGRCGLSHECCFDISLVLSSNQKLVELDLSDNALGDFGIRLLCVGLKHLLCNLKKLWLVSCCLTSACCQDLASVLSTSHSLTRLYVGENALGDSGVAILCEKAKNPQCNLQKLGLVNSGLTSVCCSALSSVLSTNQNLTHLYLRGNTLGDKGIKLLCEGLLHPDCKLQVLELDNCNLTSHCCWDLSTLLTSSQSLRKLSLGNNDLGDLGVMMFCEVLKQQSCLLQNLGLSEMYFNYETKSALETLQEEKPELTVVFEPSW

IC50 [µM] | SMILES
1 to 5 | O=C(Nc1c2c(cc3c1CCC3)CCC2)NS(=O)(=O)c1ncc(C2(O)CCCCC2)s1 [Compound 193, N-(1,2,3,5,6,7-hexahydros-indacen-4-ylcarbamoyl)-5-(1-hydroxycyclohexyl) thiazole-2-sulfonamide]
< 1 | CC(C)c1cccc(C(C)C)c1NC(=O)NS(=O)(=O)c1cc(C2(O)CC2)cs1 [Compound 230, N-(2,6-diisopropylphenyl-carbamoyl)-4-(1-hydroxycyclo-propyl)thiophene-2-sulfonamide]
< 1 | CC(C)(O)c1ccc(S(=O)(=O)NC(=O)Nc2c3c(c(Cl)c4c2CCC4)CCC3)s1 [Compound 189, N-(8-chloro-1,2,3,5,6,7-hexahydros-indacen-4-ylcarbamoyl)-5-(2-hydroxypropan-2-yl) thiophene-2-sulfonamide]
1 to 5 | CCc1cc(C#N)cc(CC)c1NC(=O)NS(=O)(=O)c1cc(C(C)(C)O)cs1 [Compound 159, N-(4-cyano-2,6-diethylphenylcarbamoyl)-4-(2-hydroxypropan-2-yl)thiophene-2-sulfonamide]
< 1 | CC(C)c1cc(C#N)cc(C(C)C)c1NC(=O)NS(=O)(=O)c1cc(C(C)(C)O)cs1 [Compound 217, N-(4-cyano-2,6-diisopropylphenyl-carbamoyl)-4-(2-hydroxypropan-2-yl)thiophene-2-sulfonamide]
< 1 | CC(C)(O)c1ccc(S(=O)(=O)NC(=O)Nc2c3c(c(F)c4c2CCC4)CCC3)s1 [Compound 176, N-(8-fluoro-1,2,3,5,6,7-hexahydros-indacen-4-ylcarbamoyl)-5-(2-hydroxypropan-2-yl) thiophene-2-sulfonamide]
1 to 5 | CC(C)c1ccc(F)c(C(C)C)c1NC(=O)NS(=O)(=O)c1ccc(C2(O)CC2)s1 [Compound 195, N-(3-fluoro-2,6-diisopropylphenylcarbamoyl)-5-(1-hydroxycyclopropyl) thiophene-2-sulfonamide]

— patent US11339136B2 (Novartis AG, priority 2016, dated 2022)
